One test has as its system CtIP. Description: Western blot of CtIP and DNA damage response proteins. The class given is cell-based, Human. The protocol: Protein lysates were analyzed by RPPA in MDACC CCSG (The Cancer Center Support Grant) supported RPPA Core. Antibodies and approaches are described at the RPPA website (https://www.mdanderson.org/research/research-resources/core-facilities/functional-proteomics-rppa-core.html). For visualization, 2D and 3D, concentrations and time were averaged for each cell line. Heat map represents “rank-ordered” changes induced by BRD4i treatment, calculated by summing median-centered protein amount normalized to DMSO. Western Blot: To prepare whole cell lysates, cells were lysed with RIPA buffer (Thermo Fisher Scientific) supplemented with Halt™ Protease and Phosphatase Inhibitor (EDTA-free) Cocktail (Thermo Fisher Scientific). After thorough mixing and incubation at 4° C. for 10 min, lysates were centrifuged at 15,000 g at 4° C. for 15 min, and supernatants were collected. To prepare subcellular fraction of nuclear soluble and chromatin-bound fraction, cells were treated with indicated drugs, and then cells were collected. For fractionation, a Subcellular Protein Fractionation kit (Thermo Fisher Scientific) was used following the manufacturer's instructions. The protein content of the cell was determined, and the cellular lysates were separated by 10% SDS-PAGE, and electro-transferred onto polyvinylidene difluoride (PVDF) membranes. After being blocked with 5% non-fat milk in TBST, the membranes were incubated with primary antibodies at 4° C. overnight, followed by 1:2000 horseradish peroxidase (HRP)-conjugated secondary antibody (Abcam) for 1 hr. Bands were visualized using a Pierce™ ECL Western Blotting Substrate (Thermo Fisher Scientific). Primary antibodies used are listed in Key Resources Table.

The test system of another test is HOC1 cells. The experiment in a line: Detection of ssDNA by BrdU immunofluorescence under non-denaturing conditions. The class given is cell-based, Human. Conditions: 4 hr after 10 Gy irradiation. On the procedure:
Detection of ssDNA by Immunofluorescence: Cells were grown in […] BrdU for two doubling times before irradiation. […] Cells were placed on ice 10 min before irradiation and kept on ice during the irradiation with 10 Gy. […] BrdU was stained (anti-BrdU, ab8152, 1:100 from Abcam) in non-denaturing conditions which enables detection of BrdU incorporated in ssDNA. TE-2000 imaging acquisition system (Nikon) equipped with a 60× objective lens was used to capture images. Stained was quantified by ImageJ.

On to `Cc1sc2c(c1C)C(c1ccc(Cl)cc1)=N[C@@H](CC(=O)OC(C)(C)C)c1nnc(C)n1-2` [JQ1], for which, in the test on CtIP (200 nM, 48 hr, HeyA8, OVCAR8, HOC7 cells), the “expression of other MRN complex proteins” value is “did not markedly alter”. For the same compound, the “CtIP and pRPA32 (S4/8) protein” value in the test on CtIP (HOC1 and HeyA8 cells, dose and time course) was “decreased CtIP and phosphorylated RPA32”. The RAD51 levels result with CtIP (HeyA8 and HOC7, 200 nM, 48 hr) is “modestly decreased”. Further, the BRCA1 levels result in the test on CtIP (MCAS, 200 nM, 48 hr) is on record as “modestly decreased”. Moreover, in the test with CtIP (all lines assessed, 200 nM, 48 hr), the CtIP protein entry was “consistently decreased”. The “formation of ssDNA” value in the test on HOC1 cells was “significantly reduced”.

These data come from patent US20220047596A1, “COMBINATION OF PARP INHIBITOR AND BRD4 INHIBITOR FOR THE TREATMENT OF CANCER” (Board of Regents, The University of Texas System, priority 2018, published 2022).
